Legend:
[1] = biological target: T1, Human KIF18A (amino acid sequence 1-417) (Homo sapiens, UniProt Q8NI77); test: Enzymatic activity test (ADP-Glo, microtubule-stimulated ATPase); type: biochemical; settings: 60 µg/mL microtubules, 25 µM ATP, 2.5 nM KIF18A protein, 120 min at ambient temperature, chemiluminescence; read-out: KIF18A IC50
T1 construct: purchased Viva Biotech (Shanghai) Ltd
T1 sequence (Q8NI77 1-417): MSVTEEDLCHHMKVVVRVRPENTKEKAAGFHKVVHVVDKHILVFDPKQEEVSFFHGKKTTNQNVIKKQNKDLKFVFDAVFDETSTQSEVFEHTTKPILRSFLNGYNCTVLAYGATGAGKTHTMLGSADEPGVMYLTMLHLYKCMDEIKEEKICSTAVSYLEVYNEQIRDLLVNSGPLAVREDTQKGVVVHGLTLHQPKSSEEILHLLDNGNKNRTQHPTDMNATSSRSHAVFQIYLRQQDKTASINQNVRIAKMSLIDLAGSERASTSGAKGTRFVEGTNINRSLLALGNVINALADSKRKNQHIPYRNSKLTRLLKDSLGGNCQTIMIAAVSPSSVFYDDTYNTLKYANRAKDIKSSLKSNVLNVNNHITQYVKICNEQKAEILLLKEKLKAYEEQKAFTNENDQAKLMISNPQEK
Outline: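 KIF18A (1-417) at 2.5 nM with 60 µg/mL microtubules and 25 µM ATP, compounds at 0-10 µM final, reacted 120 min at ambient temperature. ADP formed was read by ADP-Glo chemiluminescence after two 30 min room-temperature steps.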

HT29 cells = test: CyQuant cell proliferation activity test; type: cell-based; settings: Homo sapiens, HT-29, 72 h, HT29 at 2000 cells per well, 3 days, 0.2% DMSO, XLFIT
Experimental: Materials and Cells: HT29 cells were purchased from Nanjing Cobioer Biosciences Co., Ltd.; RPMI-1640 medium, fetal bovine serum, Trypsin-EDTA (0.25%), 96-well plates, and CyQuant reagents were purchased from ThermoFisher (USA); DMSO was purchased from SIGMA (USA).
Cell Culture: HT29 cells were cultured with RPMI-1640 containing 10% fetal bovine serum under the condition of 37°C and 5% CO2. Only cells in the logarithmic growth phase could be used for the test.
Cell Proliferation Activity Test: CyQuant reagent was used to detect the proliferation inhibitory activity of compounds on HT29 cells. The cell density was adjusted, and 100 µL per well was inoculated into a 96-well plate (HT29 at 2000 cells per well), then incubated overnight at 37°C and 5% CO2. Add compounds of various target concentrations (initial concentration of 3000 nM, 3-fold dilution, 9 concentration gradients), and make the DMSO content 0.2%. The cell plate was incubated at 37°C in 5% CO2 for 3 days. CyQuant reagent was added and incubated for 1 h. The plates were read by Envision, and IC50 was calculated using XLFIT.

OVCAR3 cells = test: Cell proliferation activity test (CyQUANT Direct); type: cell-based; settings: Homo sapiens, OVCAR-3, 72 h, 3 days, 0.2% DMSO, CyQUANT fluorescence
Outline: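 OVCAR3 cells in RPMI-1640 with 10% FBS were seeded, then treated overnight later with compound at final 0–10 µM (0.2% DMSO) for 3 days at 37°C, 5% CO2. Proliferation was read as CyQUANT Direct fluorescence after 60 min at 37°C.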

| Compound | IC50 [1] | IC50 (HT29 cells) | IC50 (OVCAR3 cells) |
| --- | --- | --- | --- |
| Cc1cc2nc(n1)N1CCC(F)(F)[C@@H](CCCC3CCN(CC3)c3cc(NS(=O)(=O)CCO)c4c(c3C(=O)N2)CCC4=O)C1 [Example 6, N-((1^3S)-1^4,1^4-difluoro-2^6-methyl-5^1,4-dioxo-5^2,5^3-dihydro-5^1H-3-aza-2(2,4)-pyrimidin-1(1,3),6(1,4)-dipiperidin-5(4,5) -indenoheterocyclononane-5^7-yl)-2-hydroxyethane-1-sulfonamide] | 0.073 µM | 0.041 µM | 0.041 µM |
| Cn1c2nc(cc1=O)NC(=O)c1c(cc(NS(=O)(=O)CCO)c3c1CCC3=O)N1CCC(C/C=C\C3CN2CCC3(F)F)CC1 (stereo not drawn) [Example 9, N-(11,11-difluoro-6-methyl-1,5,22-trioxo-1,5,6,9,10,11,12,15,16,17,18,22,23,24-tetradecahydro-2H-3,7-(azanediyl)-16, 19-ethano-8,12-methyleneindeno[4,5-i] [1,3,7,11]tetraazacyclohenicosan-21-yl)-2-hydroxyethane-1-sulfonamide] | 0.264 µM | 1.02 µM | 1.06 µM |
| Cc1cc2nc(n1)N1CCC(F)(F)[C@@H](CCCC3CCN(CC3)c3cc(NS(=O)(=O)CCO)c4c(c3C(=O)N2)CCC4=O)C1 [Example 10, N-((1^3S)-1^4,1^4-difluoro-2^6-methyl-5^1,4-dioxo-5^2,5^3-dihydro-5^1H-3-aza-2(2,4)-pyrimidin-1(1,3),6(1,4)-dipiperidin-5(4,5) -indenobicyclononane-5^7-yl)-2-hydroxyethane-1-sulfonamide] | 0.043 µM | 0.039 µM | 0.036 µM |
| Cc1cc2nc(n1)N1CCC(F)(F)C(/C=C\CC3CCN(CC3)c3cc(NS(=O)(=O)C(C)CO)c4c(c3C(=O)N2)CCC4=O)C1 (stereo not drawn) [Example 11, (Z)-N-(1^4,1^4-difluoro-2^6-methyl-5^1,4-dioxo-5^2,5^3-dihydro-5^1hydro-3-aza-2(2,4)-pyrimidin-1(1,3),6(1,4)-dipiperidin-5(4, 5)-indenocyclonofin-8-en-5^7-yl)-1-hydroxypropane-2-sulfonamide] | 0.076 µM | 0.033 µM | 0.025 µM |
| Cc1cc2nc(n1)N1CCC(F)(F)C(/C=C\CC3CCN(CC3)c3cc(NS(=O)(=O)C(C)(C)CO)c4c(c3C(=O)N2)CCC4=O)C1 (stereo not drawn) [Example 12, (Z)-N-(1^4,1^4-difluoro-2^6-methyl-5^1,4-dioxo-5^2,5^3-dihydro-5^1hydro-3-aza-2(2,4)-pyrimidin-1(1,3),6(1,4)-dipiperidin-5(4, 5)-indenocyclonofin-8-en-5^7-yl)-1-hydroxy-2-methylpropane-2-sulfonamide] | 0.172 µM | 0.165 µM | 0.096 µM |
| Cc1cc2nc(n1)N1CCC(F)(F)C(/C=C\CC3CCN(CC3)c3cc(NS(=O)(=O)CCO)c4c(c3C(=O)N2)CCC4(C)O)C1 (stereo not drawn) [Example 13, (cis)-N-(1^4,1^4-difluoro-5^1-hydroxy-2^6,5^1-dimethyl-4-oxo-5^2,5^3-dihydro-5^1H-3-aza-2(2,4)-pyrimidin-1(1,3),6(1,4)-dipiperidin-5(4,5)-indenocyclononane-8-en-5^7-yl)-2-hydroxyethane-1-sulfonamide] | 0.294 µM | 0.187 µM | 0.181 µM |
| Cc1cc2nc(n1)N1CCC(F)(F)C(/C=C/CC3CCN(CC3)c3cc(NS(=O)(=O)CCO)c4c(c3C(=O)N2)OCC4=O)C1 (stereo not drawn) [Example 14A, N-(1^4,1^4-difluoro-2^6-methyl-5^3,4-dioxo-5^2,5-dihydro-3-aza-2(2,4)-pyrimidin-1(1,3),6(1,4)-dipiperidin-5(7,6)-benzofurancyclononane-8-en-5^4-yl)-2-hydroxyethane-1-sulfonamide] | 0.044 µM | 0.837 µM | 0.635 µM |
| Cc1cc2nc(n1)N1CCC(F)(F)C(/C=C\CC3CCN(CC3)c3cc(NS(=O)(=O)CCO)c4c(c3C(=O)N2)OCC4=O)C1 (stereo not drawn) [Example 14B, N-(1^4,1^4-difluoro-2^6-methyl-5^3,4-dioxo-5^2,5-dihydro-3-aza-2(2,4)-pyrimidin-1(1,3),6(1,4)-dipiperidin-5(7,6)-benzofurancyclononane-8-en-5^4-yl)-2-hydroxyethane-1-sulfonamide] | 0.307 µM | > 3 µM | > 3 µM |

— patent EP4772509A1, “KINESIN KIF18A INHIBITOR, AND APPLICATION THEREOF” (Shanghai Apeiron Therapeutics Company Limited, priority 2023, dated 2025)
